Experimental data published in ChEMBL document CHEMBL1201862, “PubChem BioAssay data set” (2004).
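Interpolation was linear, between the two tested concentrations surrounding the appropriate level; five concentrations were tested over 48 hours in 96-well plates. GI50 marks 50% less growth.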 The source made the active and inactive calls. Cut-off read from the data, not from the text of the source: active = GI50 up to about 1.1 µM and inactive = higher.

Assays:
Assay in all cases: DTP human tumour cell line panel, 48 h
[1] = test system: SNB-75
[2] = test system: NCI/ADR-RES
[3] = test system: UO-31
[4] = test system: CCRF-CEM
[5] = test system: HCT-15
[6] = test system: KM12
[7] = test system: ACHN
[8] = test system: OVCAR-3
[9] = test system: OVCAR-8
[10] = test system: MOLT-4
[11] = test system: TK-10
[12] = test system: EKVX
[13] = test system: UACC-257
[14] = test system: HCT-116
[15] = test system: M14
[16] = test system: SK-OV-3
[17] = test system: RPMI-8226
[18] = test system: SF-295
[19] = test system: SNB-19
[20] = test system: NCI-H23

| SMILES | GI50 [1] | GI50 [2] | GI50 [3] | GI50 [4] | GI50 [5] [µM] | GI50 [6] | GI50 [7] | GI50 [8] | GI50 [9] | GI50 [10] | GI50 [11] | GI50 [12] | GI50 [13] | GI50 [14] | GI50 [15] | GI50 [16] | GI50 [17] | GI50 [18] | GI50 [19] | GI50 [20] |
| --- | --- | --- | --- | --- | --- | --- | --- | --- | --- | --- | --- | --- | --- | --- | --- | --- | --- | --- | --- | --- |
| O/N=C\c1cc(O)c(O)c(/C=N/O)c1 | > 100 µM (inactive) | 32 µM (inactive) | 16 µM (inactive) | 7.66 µM (inactive) | 34.9 | 38.4 µM (inactive) | 24.2 µM (inactive) | 20.6 µM (inactive) | 29 µM (inactive) | 21.4 µM (inactive) | 63.4 µM (inactive) | 34.8 µM (inactive) | > 100 µM (inactive) | 33.8 µM (inactive) | 27.5 µM (inactive) | 33.7 µM (inactive) | 11.8 µM (inactive) | 55.1 µM (inactive) | 89.5 µM (inactive) | 71 µM (inactive) |
| Cc1cc(O)nc(NN2C(Cl)C(=O)C2c2cccc(Cl)c2)n1 (stereo unspecified) | 20.8 µM (inactive) | – | 24.2 µM (inactive) | 6.49 µM (inactive) | 17.4 | 21.7 µM (inactive) | 30 µM (inactive) | 12.5 µM (inactive) | 31.1 µM (inactive) | 13.8 µM (inactive) | 36.1 µM (inactive) | 36.6 µM (inactive) | 32.8 µM (inactive) | > 10 µM (inactive) | 17.4 µM (inactive) | – | 12.7 µM (inactive) | – | 27.9 µM (inactive) | 20.1 µM (inactive) |
| COc1cc(C2S/C(=C/c3ccccc3)C(=O)N2c2ccccc2Cl)cc(OC)c1OC (stereo unspecified) | 6.21 µM (inactive) | 25.6 µM (inactive) | 28.5 µM (inactive) | – | 27.5 | 22 µM (inactive) | 44.4 µM (inactive) | – | 19.3 µM (inactive) | 41.8 µM (inactive) | 76.2 µM (inactive) | 13.6 µM (inactive) | 45.5 µM (inactive) | 19 µM (inactive) | 20.2 µM (inactive) | 29.6 µM (inactive) | – | 28.9 µM (inactive) | 35.5 µM (inactive) | 24.3 µM (inactive) |
| Nc1nc(Cl)nc2c1ncn2C1CC(O)C(CO)O1 (stereo unspecified) | 36.6 µM (inactive) | 0.103 µM (active) | 0.701 µM (active) | 0.0713 µM (active) | 45.9 | > 100 µM (inactive) | – | 25.8 µM (inactive) | 0.097 µM (active) | 0.15 µM (active) | – | 1.21 µM (inactive) | 1.76 µM (inactive) | 4.04 µM (inactive) | – | 52.7 µM (inactive) | 54.2 µM (inactive) | 67.9 µM (inactive) | 1.47 µM (inactive) | 0.592 µM (active) |
| C/C(CC(=O)Nc1ccccc1)=N\NC(N)=S | > 100 µM (inactive) | – | > 100 µM (inactive) | > 100 µM (inactive) | – | > 100 µM (inactive) | – | > 100 µM (inactive) | > 100 µM (inactive) | > 100 µM (inactive) | > 100 µM (inactive) | > 100 µM (inactive) | > 100 µM (inactive) | > 100 µM (inactive) | > 100 µM (inactive) | > 100 µM (inactive) | > 100 µM (inactive) | > 100 µM (inactive) | – | > 100 µM (inactive) |
| CC(C)(C)c1ccc2c(c1)OP1(Oc3c(Cl)cc(Cl)c4cccnc34)(O2)Oc2ccc(C(C)(C)C)cc2O1 | 15.5 µM (inactive) | 8.11 µM (inactive) | 5.08 µM (inactive) | 3.12 µM (inactive) | 4.53 | 6.87 µM (inactive) | – | 4.78 µM (inactive) | 5.31 µM (inactive) | 2.81 µM (inactive) | – | 5.16 µM (inactive) | 4.03 µM (inactive) | 5.22 µM (inactive) | – | 11.9 µM (inactive) | 3.59 µM (inactive) | 5.42 µM (inactive) | 7.53 µM (inactive) | 6.38 µM (inactive) |
| COc1ccc(NC(C)=O)cc1N1C(=O)/C(=C\c2ccccc2)SC1c1cc(OC)c(OC)c(OC)c1 (stereo unspecified) | – | 17.4 µM (inactive) | 33.7 µM (inactive) | 21.2 µM (inactive) | 21.7 | 16.3 µM (inactive) | 39.2 µM (inactive) | 29.4 µM (inactive) | 23.1 µM (inactive) | 25.6 µM (inactive) | > 100 µM (inactive) | 27.2 µM (inactive) | > 100 µM (inactive) | 14.4 µM (inactive) | 35.6 µM (inactive) | 41 µM (inactive) | 34 µM (inactive) | 42.1 µM (inactive) | 34 µM (inactive) | 36.5 µM (inactive) |
| COC(=O)C(Cc1ccc2c(c1)OCO2)(NC(=O)c1ccccc1)P(=O)(OC)OC (stereo unspecified) | > 100 µM (inactive) | – | > 100 µM (inactive) | > 100 µM (inactive) | > 100 | > 100 µM (inactive) | > 100 µM (inactive) | – | > 100 µM (inactive) | > 100 µM (inactive) | > 100 µM (inactive) | > 100 µM (inactive) | > 100 µM (inactive) | > 100 µM (inactive) | > 100 µM (inactive) | > 100 µM (inactive) | > 100 µM (inactive) | > 100 µM (inactive) | > 100 µM (inactive) | > 100 µM (inactive) |
| COc1ccc2nc(-n3c(/C=C/c4ccccc4O)nc4ccccc4c3=O)sc2c1 | 72.1 µM (inactive) | 55.3 µM (inactive) | 64.6 µM (inactive) | 16.1 µM (inactive) | 60.1 | 64.4 µM (inactive) | > 100 µM (inactive) | > 100 µM (inactive) | > 100 µM (inactive) | 32.9 µM (inactive) | > 100 µM (inactive) | 8.51 µM (inactive) | > 100 µM (inactive) | 25.5 µM (inactive) | 33.6 µM (inactive) | > 100 µM (inactive) | 24.9 µM (inactive) | 80.5 µM (inactive) | 35.5 µM (inactive) | 47.6 µM (inactive) |
| C=C1C(=O)O[C@@H]2[C@H](O)[C@@H](C)[C@@H]3C=CC(=O)[C@@]3(C)[C@@H](OC(=O)/C(C)=C/C)[C@H]12 | 2.03 µM (inactive) | 0.811 µM (active) | 5.31 µM (inactive) | 0.254 µM (active) | 0.377 | 1.01 µM (active) | – | 0.719 µM (active) | 0.723 µM (active) | 0.344 µM (active) | – | 0.774 µM (active) | 0.718 µM (active) | 0.3 µM (active) | – | 2.39 µM (inactive) | 0.344 µM (active) | 3.75 µM (inactive) | 2.77 µM (inactive) | 0.845 µM (active) |
| COC(=O)Cc1c(/C=C/C(C)(C)n2cnc(CCN3C(=O)CCC3=O)c2)[nH]c2ccccc12 | 50.4 µM (inactive) | > 100 µM (inactive) | 74.8 µM (inactive) | 40.4 µM (inactive) | > 100 | > 100 µM (inactive) | 95.5 µM (inactive) | > 100 µM (inactive) | > 100 µM (inactive) | 57.3 µM (inactive) | > 100 µM (inactive) | 13.7 µM (inactive) | > 100 µM (inactive) | > 100 µM (inactive) | > 100 µM (inactive) | > 100 µM (inactive) | – | 81.1 µM (inactive) | > 100 µM (inactive) | > 100 µM (inactive) |
| O=C1CCCN1CCC/N=c1/cc2n(-c3ccc(Cl)cc3)c3ccccc3nc-2cc1Nc1ccc(Cl)cc1 | 25.6 µM (inactive) | 15.6 µM (inactive) | 6.73 µM (inactive) | 12.6 µM (inactive) | 4.52 | 13.4 µM (inactive) | – | 2.09 µM (inactive) | 14.6 µM (inactive) | 3.66 µM (inactive) | – | 13.1 µM (inactive) | 11.9 µM (inactive) | 7.26 µM (inactive) | – | 46.7 µM (inactive) | 5.98 µM (inactive) | 19.3 µM (inactive) | 34.7 µM (inactive) | 8.26 µM (inactive) |
| CCCCCCCCCCCCSC(=S)c1c(C)[nH]n(CCCCCCCCCCCC)c1=O | > 100 µM (inactive) | – | 88.1 µM (inactive) | 48.4 µM (inactive) | 65.3 | > 100 µM (inactive) | 55.2 µM (inactive) | > 100 µM (inactive) | 91.2 µM (inactive) | > 100 µM (inactive) | – | 27.5 µM (inactive) | > 100 µM (inactive) | 43.6 µM (inactive) | > 10 µM (inactive) | > 100 µM (inactive) | 94.8 µM (inactive) | > 100 µM (inactive) | > 100 µM (inactive) | > 100 µM (inactive) |
| O=c1ccc2ccc(CBr)cc2o1 | > 100 µM (inactive) | 1.69 µM (inactive) | – | 1.78 µM (inactive) | 1.87 | – | – | – | 2.05 µM (inactive) | 2.29 µM (inactive) | 1.75 µM (inactive) | 2.49 µM (inactive) | 11.7 µM (inactive) | 1.88 µM (inactive) | 2.8 µM (inactive) | – | 1.61 µM (inactive) | 15.3 µM (inactive) | 12.4 µM (inactive) | 2.92 µM (inactive) |
| O=Cc1ccccc1CCn1c(=O)c2cc3c(=O)n(CCc4ccccc4C=O)c(=O)c3cc2c1=O | > 100 µM (inactive) | – | > 100 µM (inactive) | > 100 µM (inactive) | > 100 | > 100 µM (inactive) | > 100 µM (inactive) | > 100 µM (inactive) | > 100 µM (inactive) | > 100 µM (inactive) | > 100 µM (inactive) | – | > 100 µM (inactive) | > 100 µM (inactive) | – | > 100 µM (inactive) | – | > 100 µM (inactive) | > 100 µM (inactive) | > 100 µM (inactive) |
| Cc1ccc(S(=O)(=O)OCCN(CCOS(=O)(=O)c2ccc(C)cc2)c2ccc(C=O)cc2)cc1 | – | 36.2 µM (inactive) | 19.5 µM (inactive) | 34.8 µM (inactive) | 30.1 | 22.8 µM (inactive) | 33.6 µM (inactive) | 23.7 µM (inactive) | 41.8 µM (inactive) | 32.4 µM (inactive) | 36.3 µM (inactive) | 30.8 µM (inactive) | 24.8 µM (inactive) | 30.1 µM (inactive) | 32.4 µM (inactive) | – | 38.4 µM (inactive) | 44.3 µM (inactive) | 60.8 µM (inactive) | 36.2 µM (inactive) |
